Measurements published in article PMC5531494, “Target specificity, in vivo pharmacokinetics, and efficacy of the putative STAT3 inhibitor LY5 in osteosarcoma, Ewing's sarcoma, and rhabdomyosarcoma” (PLoS ONE, 2017).

Key:
OS-17-luc cells = test: Murine model of OS pulmonary metastasis, bioluminescent imaging; type: in vivo, mice; conditions: 20 mg/kg LY5 daily oral gavage for 30 days, vs vehicle
Procedure: (§1) The ability of LY5 to inhibit pulmonary metastases was evaluated using a murine model of OS pulmonary metastasis. 8-week-old C.B-17 scid -/- female mice (Envigo, Madison, WI) received IV inoculation with 10^6 OS-17-luc cells expressing a luciferase reporter gene. OS-17-luc cells were generated by infecting OS-17 wild type cells with lentivirus containing the firefly luciferase under a CMV promoter (Cellomics Technology, Hallethorpe, MD) and selected with 0.5 ug/mL puromycin (Thermo Fisher Scientific, Waltham, MA). Beginning 24 hrs after inoculation, mice received vehicle (n = 10) or 20 mg/kg LY5 once daily via oral gavage (n = 9, one mouse died within 24 hrs after cell inoculation). LY5 was prepared by diluting a 40 mg/mL solution/slurry with a 50% propylene glycol/1% Tween 20 in water vehicle immediately before administration. Mice were treated with LY5 for 30 days, and bioluminescent imaging (after IP luciferin administration) was performed to determine pulmonary metastatic disease load. To investigate the pharmacodynamics (PD) effects of LY5, pSTAT3 (p-Tyr705, ab76315, Abcam) and total STAT3 (ab119352, Abcam) were evaluated in pulmonary metastatic lesions using IHC in lung samples from mice euthanized 24 hrs after their last dose.
(§2) (A-B) IHC staining of lung metastasis from mice treated with LY5. The metastatic tumor sections were stained with pSTAT3 or hematoxylin and eosin. […]

[1] = Clinical toxicities in normal dogs; type: in vivo; conditions: 1 mg/kg, 24 hour PK collection timeframe
Procedure: LY5 was evaluated in two normal purpose-bred beagle dogs (female 8.8 kg; male 11.2 kg) receiving a single dose of 1mg/kg LY5 IV then orally by gavage 7 days later to establish the PK profile and assess the spectrum of clinical toxicities associated with LY5 administration. The oral dosing was repeated in the fed and fasted state. The starting dose was determined based on allometric scaling from the maximal tolerated dose studies performed in mice. Dogs were washed out for 30 days, and then given a dose of 25 mg in a capsule orally, followed by a 50 mg capsule dose 14 days later. Full PK sampling was performed over 24 hours following each dose of LY5. The dogs received LY5 and were used for the PK analysis but were not euthanized upon conclusion of the study.

STAT1 = target: T1, STAT1 (Homo sapiens, UniProt P42224); test: Cytokine-induced STAT1 phosphorylation in SJSA cells, Western blot; type: cell-based; conditions: induced by IFN-γ, IFN-α, or IL-4
T1 construct: endogenous in cells; host or cells: SJSA
Procedure: (§3) Cell lysis, protein isolation and immunoblotting were performed as described previously. Twenty micrograms of protein were resolved using 4–12% Bis-Tris polyacrylamide gels. Gels were transferred to PVDF membranes and subjected to blocking and incubation with primary and secondary antibodies. The primary antibodies used in this study included: phospho-STAT3 (Tyr705, Cell Signaling, Boston, MA and Abcam, Cambridge, MA), total STAT3 (Cell Signaling and Abcam), phospho-STAT1 (Cell Signaling), total STAT1 (Cell Signaling), phospho-STAT2 (Cell Signaling), phospho-STAT4 (Cell Signaling), phospho-STAT6 (Cell Signaling), and GAPDH (Cell Signaling). Protein bands were detected using Western Lightning ® Plus Enhanced Chemiluminescence substrate (Perkin Elmer, Waltham, MA) and HyBlot CL ® Autoradiography film (Denville Scientific, Holliston, MA). The cytokines used in this study included: interferon gamma (IFN-γ, Cell Signaling), interferon alpha (IFN-α, Cell Signaling), interleukin-4 (IL-4, Cell Signaling), interleukin-6 (IL-6, Cell Signaling), and oncostatin M (OSM, Cell Signaling).
(§4) Fig 1 LY5 inhibits pSTAT3 in sarcoma cell lines. (A) The tumor cell lines RH30, EW8, and RD were treated with increasing concentrations of LY5 for 30 minutes. Cell lysates were collected for Western blotting of p-STAT3, total STAT3, and GAPDH. GAPDH was used as loading control. […]

STAT2 = target: T2, STAT2 (Homo sapiens, UniProt P52630); test: Cytokine-induced STAT2 phosphorylation in SJSA cells, Western blot; type: cell-based; conditions: induced by IFN-γ, IFN-α, or IL-4
T2 construct: endogenous in cells; host or cells: SJSA
Procedure: as §3, §4

STAT3 = STAT3 (Homo sapiens, UniProt P40763); test: pSTAT3 in pulmonary metastatic lesions, IHC and Western blotting; type: in vivo, mice; design: from tissue; host or cells: OS-17-luc lung metastases and OS-1 subcutaneous PDX tumours in C.B-17 scid mice; conditions: 20 mg/kg LY5 daily for 30 days; immunohistochemistry and Western blotting
Procedure: as §1, §2

[2] = Toxicity / tolerability in mice; type: in vivo
Procedure: Single-dose toxicity studies in mice were performed to identify the maximum tolerated dose of LY5. Additionally, 30 ICR mice (Harlan Laboratories, Indianapolis, IN) were divided into 3 groups to be dosed with 5 mg/kg LY5 (2 mg/ml) by oral (PO), intraperitoneal (IP) or intravenous (IV) routes to establish oral bioavailability. Animals were euthanized and blood was collected at allocated time points (5, 10, 20, 30 and 60 minutes, 2, 4, 6, 8 and 24 hrs) after LY5 administration, plasma was separated by centrifugation and frozen immediately on dry ice. Samples were stored at -80° C prior to analysis.

[3] = test system: RH10, RH36, OS-17 and OS-1; test: Subcutaneous PDX models of RMS and OS, overall; type: in vivo, mice; conditions: subcutaneous PDX models RH10, RH36, OS-17, OS-1
Procedure: C.B-17SC scid^-/- female mice (Taconic Farms, Germantown NY), were used to propagate subcutaneously implanted tumors. All mice were maintained under barrier conditions and experiments were conducted using protocols and conditions approved by the institutional animal care and use committee at University of Texas Health Science Center at San Antonio. Ten mice were used in each control or treatment group. Tumor volumes (cm^3) were determined and responses were determined using three activity measures as previously described.
To further examine the efficacy of LY5, we administered LY5 using subcutaneous PDX models of RMS (RH10 and RH36) and OS (OS-17 and OS-1). RH10, RH36 and OS-1 were derived from tissue explants, therefore no corresponding cell lines exist. Tumors were harvested 2 hrs after final drug administration. […] In addition, STAT3 phosphorylation was not observed in control or treated tumor derived from OS-17, and inhibition of STAT3 phosphorylation was not observed in OS-1 PDX models treated with 40 mg/kg twice daily.

T2 sequence (P52630 whole entry): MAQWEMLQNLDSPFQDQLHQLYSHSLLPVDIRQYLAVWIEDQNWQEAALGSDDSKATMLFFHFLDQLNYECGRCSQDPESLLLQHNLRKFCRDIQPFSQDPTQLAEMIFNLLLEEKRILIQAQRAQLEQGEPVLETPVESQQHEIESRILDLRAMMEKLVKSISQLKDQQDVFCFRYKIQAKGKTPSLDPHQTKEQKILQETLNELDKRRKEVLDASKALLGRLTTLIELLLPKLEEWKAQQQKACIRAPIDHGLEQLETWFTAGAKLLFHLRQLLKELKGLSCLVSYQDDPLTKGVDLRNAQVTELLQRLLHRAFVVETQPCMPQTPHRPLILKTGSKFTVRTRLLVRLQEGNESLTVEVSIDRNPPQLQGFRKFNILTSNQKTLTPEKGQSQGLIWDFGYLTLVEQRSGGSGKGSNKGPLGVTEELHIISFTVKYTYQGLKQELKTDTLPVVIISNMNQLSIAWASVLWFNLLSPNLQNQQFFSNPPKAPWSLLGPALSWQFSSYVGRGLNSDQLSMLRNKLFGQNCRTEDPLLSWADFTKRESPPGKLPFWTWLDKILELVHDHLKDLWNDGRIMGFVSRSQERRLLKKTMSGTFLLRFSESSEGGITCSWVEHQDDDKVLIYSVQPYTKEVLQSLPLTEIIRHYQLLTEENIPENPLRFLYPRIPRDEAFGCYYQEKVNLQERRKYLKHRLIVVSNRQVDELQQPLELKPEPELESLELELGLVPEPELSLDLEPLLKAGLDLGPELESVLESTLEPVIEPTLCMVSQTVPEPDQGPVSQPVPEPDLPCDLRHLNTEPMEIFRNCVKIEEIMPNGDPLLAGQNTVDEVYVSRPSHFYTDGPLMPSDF
Chain of STAT3 (P40763 whole entry): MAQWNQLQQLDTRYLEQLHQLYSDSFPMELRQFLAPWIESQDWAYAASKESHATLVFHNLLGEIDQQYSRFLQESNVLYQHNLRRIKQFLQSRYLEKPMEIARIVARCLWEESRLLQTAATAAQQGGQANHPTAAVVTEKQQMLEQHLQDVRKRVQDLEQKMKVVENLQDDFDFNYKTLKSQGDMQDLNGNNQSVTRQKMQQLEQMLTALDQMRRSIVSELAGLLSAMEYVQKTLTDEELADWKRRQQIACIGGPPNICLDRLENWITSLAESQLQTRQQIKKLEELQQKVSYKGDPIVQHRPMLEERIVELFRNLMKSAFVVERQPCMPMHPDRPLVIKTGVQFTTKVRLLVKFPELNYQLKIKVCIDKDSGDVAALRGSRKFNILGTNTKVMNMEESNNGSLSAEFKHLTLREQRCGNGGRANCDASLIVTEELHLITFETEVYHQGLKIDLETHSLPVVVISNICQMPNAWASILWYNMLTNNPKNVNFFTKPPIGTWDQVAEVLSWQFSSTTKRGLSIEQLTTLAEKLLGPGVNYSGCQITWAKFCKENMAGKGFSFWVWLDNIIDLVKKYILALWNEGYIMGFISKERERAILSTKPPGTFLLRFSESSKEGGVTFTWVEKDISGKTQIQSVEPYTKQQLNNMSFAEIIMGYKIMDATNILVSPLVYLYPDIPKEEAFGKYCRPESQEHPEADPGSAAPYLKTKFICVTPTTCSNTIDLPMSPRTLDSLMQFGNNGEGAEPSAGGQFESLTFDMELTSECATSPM
T1 sequence (P42224 whole entry): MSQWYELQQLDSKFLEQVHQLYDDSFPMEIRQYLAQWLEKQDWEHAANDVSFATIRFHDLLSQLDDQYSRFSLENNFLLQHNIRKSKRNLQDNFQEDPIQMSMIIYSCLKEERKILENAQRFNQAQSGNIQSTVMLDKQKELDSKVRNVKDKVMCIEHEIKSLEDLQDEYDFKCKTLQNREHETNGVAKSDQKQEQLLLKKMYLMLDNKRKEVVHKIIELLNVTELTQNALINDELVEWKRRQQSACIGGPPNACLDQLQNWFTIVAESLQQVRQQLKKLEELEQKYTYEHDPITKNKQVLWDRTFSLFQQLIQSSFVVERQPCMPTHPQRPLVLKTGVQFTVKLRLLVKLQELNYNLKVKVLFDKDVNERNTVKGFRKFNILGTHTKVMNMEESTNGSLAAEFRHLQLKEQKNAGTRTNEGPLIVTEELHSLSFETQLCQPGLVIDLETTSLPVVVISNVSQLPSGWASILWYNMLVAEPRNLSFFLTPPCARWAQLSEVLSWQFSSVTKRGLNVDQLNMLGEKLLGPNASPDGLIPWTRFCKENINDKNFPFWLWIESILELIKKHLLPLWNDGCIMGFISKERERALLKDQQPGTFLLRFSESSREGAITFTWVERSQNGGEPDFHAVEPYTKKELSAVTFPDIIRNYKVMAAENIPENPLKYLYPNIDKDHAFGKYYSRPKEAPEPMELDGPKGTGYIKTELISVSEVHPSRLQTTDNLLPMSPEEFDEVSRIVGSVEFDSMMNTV

## NS(=O)(=O)c1cccc2c1C(=O)C=C(Nc1cccnc1)C2=O [LY5, 5,8-dioxo-6-(pyridin-3-ylamino)-5,8-dihydronaphthalene-1-sulfonamide]
OS-17-luc cells
  development of pulmonary metastatic lesions (luciferase expression): no difference
[1]
  tolerability / acute clinical toxicities: well tolerated without apparent acute clinical toxicities
STAT1
  phosphorylation of STAT1: did not inhibit
STAT2
  phosphorylation of STAT2: did not inhibit
STAT3
  STAT3 phosphorylation in pulmonary metastatic lesions: inhibited STAT3 phosphorylation
[2]
  tolerable dosing: 40 mg/kg BID
[2]; doses received via IV, oral, or IP routes
  toxicity: No toxicity was noted
[3]
  PDX growth compared to control: did not decrease PDX growth
